Source: patent publication US8242113B2, “Oxazolidinone derivatives with cyclic amidoxime or cyclic amidrazone pharmaceutical compositions thereof” (Legochem Biosciences, Inc., priority 2008, dated 2012)
Converted amounts (≈) assume the structure as drawn.

Legend:
[1] = test system: methicillin-resistant Staphylococcus aureus (MRSA); assay: In vitro antibacterial activity, broth microdilution (MIC90); settings: read-out: Antibacterial activity MIC90, MRSA
From the text: (§1) MIC90 measurement was made according to the broth microdilution method based on the CLSI document [Clinical and Laboratory Standards Institute Document.
(§2) The test compounds in DMSO solution were further diluted 20-fold with sterile distilled water.

[2] = test system: linezolid- and vancomycin-resistant Enterococcus faecalis (LVRE); assay: as above; settings: read-out: Antibacterial activity MIC90, LVRE
From the text: as §1, §2

Structure (SMILES) | MIC90 [1] [µg/mL] | MIC [2] [µg/mL]
CCOC(=S)NC[C@H]1CN(c2ccc(N3C=NN(C=O)CC3)c(F)c2)C(=O)O1 [Compound 54] | 0.5 (≈ 1.22 µM) | 4 (≈ 9.77 µM)
CC(=O)NC[C@H]1CN(c2ccc(N3C=NN(C(=O)C(C)=O)CC3)c(F)c2)C(=O)O1 [Compound 36] | 2 (≈ 4.93 µM) | 8 (≈ 19.7 µM)
O=CN1CCN(c2c(F)cc(N3C[C@H](CNc4ccon4)OC3=O)cc2F)C=N1 [Compound 105] | 0.5 (≈ 1.23 µM) | 16 (≈ 39.4 µM)
CC(=O)NC[C@H]1CN(c2ccc(N3C=NN(CC(=O)NO)CC3)c(F)c2)C(=O)O1 [Compound 26] | 16 (≈ 39.2 µM) | 64 (≈ 157 µM)
CC(=O)NC[C@H]1CN(c2ccc(N3C=NN(C(=O)CO)CC3)c(F)c2)C(=O)O1 [Compound 12] | 2 (≈ 5.08 µM) | 8 (≈ 20.3 µM)
C#CCN1CCN(c2ccc(N3C[C@H](CNC(C)=O)OC3=O)cc2F)C=N1 [Compound 5] | 1 (≈ 2.68 µM) | 8 (≈ 21.4 µM)
CC(=O)NC[C@H]1CN(c2ccc(N3C=NN(C)CC3)c(F)c2)C(=O)O1 [Compound 3] | 2 (≈ 5.72 µM) | 8 (≈ 22.9 µM)
CNC(=S)N1CCN(c2ccc(N3C[C@H](CNC(C)=O)OC3=O)cc2F)C=N1 [Compound 19] | 0.5 (≈ 1.22 µM) | 4 (≈ 9.79 µM)
CC(=O)NC[C@H]1CN(c2ccc(N3C=NN(C=O)CC3)c(F)c2)C(=O)O1 [Compound 1] | 1 (≈ 2.75 µM) | 8 (≈ 22 µM)
CC(=O)NC[C@H]1CN(c2ccc(N3C=NN(C)CC3)cc2)C(=O)O1 [Compound 96] | 2 (≈ 6.04 µM) | 16 (≈ 48.3 µM)
COC(=S)NC[C@H]1CN(c2ccc(N3C=NNCC3)c(F)c2)C(=O)O1 [Compound 58] | 0.25 (≈ 0.68 µM) | 4 (≈ 10.9 µM)
CCOC(=O)CN1CCN(c2ccc(N3C[C@H](CNC(C)=O)OC3=O)cc2F)C=N1 [Compound 24] | 2 (≈ 4.75 µM) | 16 (≈ 38 µM)
O=C1O[C@@H](Cn2ccnn2)CN1c1ccc(N2C=NNCC2)c(F)c1 [Compound 82] | 2 (≈ 5.79 µM) | 32 (≈ 92.7 µM)
COC(=S)NC[C@H]1CN(c2ccc(N3C=NN(CC#N)CC3)c(F)c2)C(=O)O1 [Compound 65] | 0.5 (≈ 1.23 µM) | 4 (≈ 9.84 µM)
CCN1CCN(c2ccc(N3C[C@H](CNC(=S)OC)OC3=O)cc2F)C=N1 [Compound 61] | 0.5 (≈ 1.26 µM) | 4 (≈ 10.1 µM)
CCOC(=O)N1CCN(c2ccc(N3C[C@H](CNC(C)=O)OC3=O)cc2F)C=N1 [Compound 35] | 2 (≈ 4.91 µM) | 8 (≈ 19.6 µM)
CC(=O)NC[C@H]1CN(c2ccc(N3C=NN(S(=O)(=O)N(C)C)CC3)c(F)c2)C(=O)O1 [Compound 21] | 2 (≈ 4.52 µM) | 4 (≈ 9.04 µM)
CC(=S)NC[C@H]1CN(c2ccc(N3C=NN(C(=O)CO)CC3)c(F)c2)C(=O)O1 [Compound 76] | 0.5 (≈ 1.22 µM) | 2 (≈ 4.88 µM)
